Experimental data reported in paper PMC5333395, “Assessing histone demethylase inhibitors in cells: lessons learned” (Epigenetics & Chromatin, 2017).

Biological target: T1, KDM3A (Homo sapiens, UniProt Q9Y4C1)
T1 sequence (Q9Y4C1 1-1321): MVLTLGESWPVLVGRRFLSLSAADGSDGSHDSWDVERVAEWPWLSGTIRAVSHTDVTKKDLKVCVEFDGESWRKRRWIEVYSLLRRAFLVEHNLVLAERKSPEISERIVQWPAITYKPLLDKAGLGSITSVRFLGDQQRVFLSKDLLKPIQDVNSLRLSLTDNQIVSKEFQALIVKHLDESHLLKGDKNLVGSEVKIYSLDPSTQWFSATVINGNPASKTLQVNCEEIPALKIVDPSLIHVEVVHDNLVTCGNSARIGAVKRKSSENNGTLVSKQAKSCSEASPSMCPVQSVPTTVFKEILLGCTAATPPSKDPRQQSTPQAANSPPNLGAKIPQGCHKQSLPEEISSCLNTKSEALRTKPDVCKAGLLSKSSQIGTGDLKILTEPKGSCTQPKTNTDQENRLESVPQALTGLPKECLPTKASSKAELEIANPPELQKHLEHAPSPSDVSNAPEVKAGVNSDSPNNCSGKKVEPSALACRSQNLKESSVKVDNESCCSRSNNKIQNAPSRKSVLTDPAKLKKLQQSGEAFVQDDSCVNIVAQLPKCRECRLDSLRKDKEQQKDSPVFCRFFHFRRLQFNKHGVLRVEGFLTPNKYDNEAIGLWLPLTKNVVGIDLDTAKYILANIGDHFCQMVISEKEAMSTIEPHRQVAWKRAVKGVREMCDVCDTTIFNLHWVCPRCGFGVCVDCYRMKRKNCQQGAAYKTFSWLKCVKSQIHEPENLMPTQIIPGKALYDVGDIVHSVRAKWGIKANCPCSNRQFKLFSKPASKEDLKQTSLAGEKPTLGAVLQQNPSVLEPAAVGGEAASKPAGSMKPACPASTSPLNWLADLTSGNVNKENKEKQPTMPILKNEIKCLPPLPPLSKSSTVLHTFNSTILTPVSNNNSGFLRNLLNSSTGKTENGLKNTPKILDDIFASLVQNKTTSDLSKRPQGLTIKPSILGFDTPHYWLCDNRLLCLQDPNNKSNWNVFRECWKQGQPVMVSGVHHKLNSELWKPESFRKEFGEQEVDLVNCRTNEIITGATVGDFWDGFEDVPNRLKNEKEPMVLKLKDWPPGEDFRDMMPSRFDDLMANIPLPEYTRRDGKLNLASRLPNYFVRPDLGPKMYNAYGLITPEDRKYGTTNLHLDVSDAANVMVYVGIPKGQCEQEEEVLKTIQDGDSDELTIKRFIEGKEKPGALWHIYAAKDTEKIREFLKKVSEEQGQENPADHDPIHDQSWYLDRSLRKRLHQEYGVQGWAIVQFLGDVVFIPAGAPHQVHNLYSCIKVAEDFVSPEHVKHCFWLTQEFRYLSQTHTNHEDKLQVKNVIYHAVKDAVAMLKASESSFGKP
Assay: High-content immunofluorescence (IF) assay, overexpressed full-length FLAG-tagged KDM in HeLa cells
Format: cell-based
Conditions: HeLa cells overexpressing WT KDM3A, H3K9me2 mark, 24 h; read-out: KDM3A, in cells, EC50 by IF assay (head: IC50)

SMILES: CCN(CCN(C)C)C(=O)CNCc1cncc(C(N)=O)c1 [KDOAM-32]
- EC50: > 100 µM
